This note sets out measurements from patent US20020192178A1, “Leguminous extract heavy-metal-scavenging anti-pollution agent” (L'OREAL, priority 2001, published 2002).

SMILES strings stand for the structures.

The assay has as its system immortalized human keratinocytes (DK7-NR). Nature of the assay: Protective effect against cadmium cytotoxicity, Neutral Red incorporation test. The conditions noted are these: cadmium chloride alone, 0% extract of maize, 24 hours; read-out: IC50 (concentration of CdCl2 inducing a 50% decrease in viability). It is filed as cell-based. On the procedure: Heavy metals such as cadmium, nickel, lead, mercury, etc. can cause cytotoxicity on the cells of various organs including the skin. The cytotoxic effect of cadmium on human keratinocytes in culture was evaluated by a technique for measuring the cell viability: the Neutral Red incorporation test (Culture Methods. 1984, 9, 7-9).
The study was performed on a monolayer culture of immortalized human keratinocytes (DK7-NR) by the Nestle research center. The cells are inoculated on D-3 in 96-well culture dishes at a rate of 25 000 cells/cm^2 in 100 µl of culture medium (medium defined without calf serum, NR2, Biofluids). The incubations are performed in an incubator at 37° C. in humid atmosphere enriched with 5% CO2.
The cells are treated [lacuna] 24 hours with increasing concentrations (0, 10, 25, 50, 75, 100, 150 and 200 μM) of cadmium chloride (CdC12) alone, so as to determine its cytotoxicity. In parallel, a treatment is performed under the same conditions, but in the presence of the extract of maize (Phytovityl® at 0.5% and 1%, non-cytotoxic concentrations for the cells). The incubations are performed in an incubator at 37° C., 5% CO2 in a humid atmosphere.
At the end of the contact period, the cell viability is determined by means of a Neutral Red (POS 55/006) incorporation test, with spectrophotometric reading at 500 nm. […]

Consider `[Cl][Cd][Cl]` [cadmium chloride], for which the IC50 is 37.7 µM.
